Data reported in patent US8371376B2, “Method for pre-treatment of subterranean sites adjacent to water injection wells” (E. I. du Pont de Nemours and Company, priority 2010, dated 2013).

Experiment: Titration of sand/amine/brine mixture with 1N HCl, amine concentration by GC
Format: physicochemical
Details: initial pH 8.4, before HCl addition; 380 ppm expected if all dissolved
Procedure: Helium was used as the carrier gas.
38 milligrams (mg) of N N-Dimethyl-1-Dodecanamine (hereafter referred to as “the amine”) was added to 10.210 gr of Pentane. This solution was added to 10.1845 gr of specific sand layers (Oa and Ob) obtained from the Schrader Bluff formation of the Milne Point Unit of the Alaskan North slope. The oil content of the sand was first removed using a mixture of methanol and toluene (50/50, volume/volume) as solvent washes. The solvent mixture was subsequently evaporated off the core sand to produce clean, dry, flowable core sand. This sand was mixed with the amine and pentane solution to produce a slurry. This slurry was thoroughly mixed and the pentane was evaporated off leaving the amine on the sand (hereafter referred to as sand/amine mixture). 100 ml of brine #2 (Table 3) was added to the sand/amine mixture to create the sand/amine/brine mixture. […] The fact that the amine was not detected underlined its strong binding to the sand particles. […] The data underlines the remarkable efficiency of an acid at ionizing and removing the amine from the sand.

## CCCCCCCCCCCCN(C)C [N-N-dimethyl-1-dodeanamine, N N-Dimethyl-1-Dodecanamine]
  amine conc. in sand/amine/brine mixture: < 1 ppm
